Reference: patent US20250042961A1, “P53 PEPTIDOMIMETIC MACROCYCLES” (MERCK SHARP & DOHME LLC, priority 2021, published 2025)
In brackets after ≈: the same amount, converted by molar mass. Read-outs that look alike come from different tables or passages of the source. *1 amine or outer side, *2 acyl side, *3 side chain or, on linkers, in order; H or OH if unused. Where a SMILES comes first, the peptide text is derived from it. Bridges are numbered along the chain shown (N, C = ends). [ ]: non-standard residue; d: D form. ξ: configuration not given here. ξαMeNle(6-ylidene) = CC(CCCC=[*:3])(N[*:1])C(=O)[*:2]; dPhe(4-CF3) = N[C@H](Cc1ccc(C(F)(F)F)cc1)C(=O)O; dTrp(6-F) = N[C@H](Cc1c[nH]c2cc(F)ccc12)C(=O)O

Legend:
[1] = molecular target: T1, MDM2 (1-125) (Homo sapiens, UniProt Q00987); assay: Competitive fluorescence anisotropy assay (FP Kd MDM2); format: binding
T1 construct: GST (N); His6 (N); TEV cleavage site ENLYFQG (N); made in house; host or cells: Escherichia coli BL21 (DE3) Rosetta T1R
T1 sequence (Q00987 with tags, fused parts or gaps): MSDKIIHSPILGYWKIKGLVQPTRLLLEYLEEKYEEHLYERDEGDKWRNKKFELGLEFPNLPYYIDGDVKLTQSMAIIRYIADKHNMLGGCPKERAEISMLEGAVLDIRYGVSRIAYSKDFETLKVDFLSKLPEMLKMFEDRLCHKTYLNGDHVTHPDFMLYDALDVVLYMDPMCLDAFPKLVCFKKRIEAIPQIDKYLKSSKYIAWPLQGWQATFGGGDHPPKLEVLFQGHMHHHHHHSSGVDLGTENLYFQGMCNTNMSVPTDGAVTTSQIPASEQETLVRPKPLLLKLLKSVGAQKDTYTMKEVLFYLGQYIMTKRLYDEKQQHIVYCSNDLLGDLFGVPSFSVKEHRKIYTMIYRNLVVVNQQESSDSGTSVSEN
Source text: For use in the peptide binding assay, a human MDM2 1-125 sequence was cloned into a pNIC-GST vector. The TEV (tobacco etch virus) cleavage site was changed from ENLYFQS (SEQ ID NO: 13) to ENLYFQG (SEQ ID NO: 14) to give a fusion protein with the following sequence:
[P] is the protein concentration (MDM2), [L] is the labeled peptide concentration, r is the anisotropy measured, r0 is the anisotropy of the free peptide, rb is the anisotropy of the MDM2-FAM-labeled peptide complex, Kd is the dissociation constant, [L]t is the total FAM labeled peptide concentration, and [P]t is the total MDM2 concentration. […] These values were then used to determine apparent Kd values of the respective competing ligands in subsequent competition assays in fluorescence anisotropy experiments. MDM2 and MDM4 competition experiments were performed with their respective concentrations held constant at 250 nM and 75 nM, in the presence of 50 nM of FAM-labeled 12/1. The competing molecules were then titrated against the complex of the FAM-labeled peptide and protein. Apparent Kd values were determined by fitting the experimental data to the equations shown below:
[L]st and [L]t denote labeled ligand and total unlabeled ligand input concentrations, respectively. Kd2 is the dissociation constant of the interaction between the unlabeled ligand and the protein.
In all competition experiments, it is assumed that [P]t>[L]st, otherwise considerable amounts of free labeled ligand would always be present and would interfere with measurements. Kd1 is the apparent Kd for the labeled peptide used and has been experimentally determined as described in the previous paragraph. The FAM-labeled peptide was dissolved in dimethyl sulfoxide (DMSO) at 1 mM and diluted into experimental buffer. Readings were carried out with an Envision Multilabel Reader (PerkinElmer). Experiments were carried out in PBS (2.7 mM KCl, 137 mM NaCl, 10 mM Na2HPO4 and 2 mM KH2PO4 (pH 7.4)) and 0.1% Tween-20 buffer. All titrations were carried out in triplicate. Curve-fitting was carried out using Prism 4.0 (GraphPad®). […] Negative control titrations of the ligands under investigation were also carried out with the fluorescently labeled peptide (in the absence of MDM2) to ensure no interactions were occurring between the ligands and the FAM-labeled peptide. […] Measurements were taken a minimum of three times (biological replicates) and values are reported as geometric means of the replicates.

[2] = system: p53 responsive β-lactamase reporter in HCT116 cells; assay: p53 beta-lactamase reporter gene cellular functional assay; format: cell-based
Protocol: HCT116 cells were stably transfected with a p53 responsive β-lactamase reporter and expanded in McCoy's 5A Medium with 10% fetal bovine serum (FBS), Blasticidin, and Penicillin/Streptomycin and then transferred to 1.5 mL freezing vials and stored under liquid nitrogen in growth media containing 5% DMSO. […] The cells were then seeded into a 384-well plate at a density of 8000 cells per well. […] The final working concentration of DMSO was 0.5%. β-lactamase activity was detected using the ToxBLAzer Dual Screen (Invitrogen), as per the manufacturer's instructions. Measurements were made using the Envision multiplate reader (PerkinElmer). […] Measurements were taken a minimum of three times (biological replicates) and values are reported as geometric means of the replicates.

[3] = system: HCT116 cells; format: cell-based; conditions: serum condition not stated; read-out: LDH-release EC50
Protocol: HCT116 cells were stably transfected with a p53 responsive β-lactamase reporter and expanded in McCoy's 5A Medium with 10% fetal bovine serum (FBS), Blasticidin, and Penicillin/Streptomycin and then transferred to 1.5 mL freezing vials and stored under liquid nitrogen in growth media containing 5% DMSO. One day prior the assay, a vial of banked cells was recovered in a cell culture flask and incubated for 24 hours, followed by removal of cell growth media and replacement with Opti-MEM containing 2% FBS. The cells were then seeded into a 384-well plate at a density of 8000 cells per well. […] The final working concentration of DMSO was 0.5%. Lactate dehydrogenase release was detected using the CytoTox-ONE Homogenous Membrane Integrity Assay Kit (Promega), as per the manufacturer's instructions. Measurements were carried out using the Tecan plate reader. Maximum LDH release was defined as the amount of LDH released as induced by the lytic peptide (iDNA79) and used to normalize the results. Measurements were taken a minimum of three times (biological replicates) and values are reported as geometric means of the replicates.

[4] = system: Jump-In T-REx CHO-K1 BLA cells; assay: Tetracycline beta-lactamase reporter gene cellular assay (counterscreen); format: cell-based
Protocol: This assay was based on Jump-In™ T-REx™ CHO-K1 BLA cells containing a stably integrated β-lactamase under the control of an inducible cytomegalovirus (CMV) promoter. Cells were maintained in Dulbecco's Minimal Eagle Medium (DMEM) with 10% fetal bovine serum (FBS), Blasticidin, and Penicillin/Streptomycin and then transferred to 1.5 mL freezing vials and stored under liquid nitrogen in growth media containing 5% DMSO. […] Cells were seeded into a 384-well plate at a density of 4000 cells per well. […] The final working concentration of DMSO was 0.5%. β-lactamase activity was detected using the ToxBLAzer Dual Screen (Invitrogen), as per the manufacturer's instructions. Measurements were carried out using the Envision multiplate reader (PerkinElmer). Counterscreen activity was defined as the amount of β-lactamase activity induced by tetracycline. Measurements were taken a minimum of three times (biological replicates) and values are reported as geometric means of the replicates.

[5] = system: HCT116; format: cell-based; conditions: for EC50: 72 h; for HCT116 proliferation % Max: 72 hours, 10% serum
Source text: (§1) To further establish the impact of the above modification in making cleaner “drug” like compounds, we profiled a set of compounds of the invention in cellular proliferation assays (Table 3).

[6] = system: p53 null Ca Ski; format: cell-based; conditions: 72 h
Source text: as §1

[7] = Solubility (PBS, pH 7)
[8] = read-out: p53 activity EC50 (0% FBS, 4 h), 0% FBS, 4 h
[9] = read-out: p53 activity EC50 (10% FBS, 16 h), 10% FBS, 16 h
[10] = read-out: Counter screen EC50 (0% FBS, 4 h), 0% FBS, 4 h
[11] = read-out: Counter screen EC50 (10% FBS, 16 h), 10% FBS, 16 h

| Structure (SMILES) | Kd [1] [µM] | improvement of p53 reporter gene functional cellular activity ([2]; 0% serum, versus compound 1) [fold] | EC50 [2, 8] [µM] | EC50 [2, 9] [µM] | EC50 [3] [µM] | EC50 [4, 10] [µM] | EC50 [4, 11] [µM] | EC50 ([4]; serum condition not stated, read-out: counterscreen EC50) [µM] | EC50 [5] [µM] | HCT116 proliferation % Max [5] | EC50 [6] [µM] | solubility [7] [µM] | overall improvement of cellular activity compared to parent peptide ([2]; 10% serum) [fold] | EC50 ([2]; read-out: p53 activity EC50 (10% FBS, 16 h), 10% FBS, 16 h, listed as compound 4) [µM] | improvement of cell efficacy in HCT116 proliferation versus compound 2 [5] | p53 null Ca Ski proliferation % Max (inhibition at maximum concentration) [6] [%] |
| --- | --- | --- | --- | --- | --- | --- | --- | --- | --- | --- | --- | --- | --- | --- | --- | --- |
| CC(=O)N[C@@H](C(=O)N[C@H](C)C(=O)N[C@H](Cc1c[nH]c2cc(F)ccc12)C(=O)N[C@H](Cc1ccc(O)cc1)C(=O)N[C@H](C)C(=O)NC1(C)CCC/C=C\CCCC(C)(C(=O)N[C@H](CC(C)C)C(=O)N[C@H](CO)C(N)=O)NC(=O)[C@@H](CCC(N)=O)NC(=O)[C@@H](CCC(=O)O)NC(=O)[C@@H](Cc2ccc(C(F)(F)F)cc2)NC1=O)[C@H](C)O (stereo partly drawn) [Compound 2, Acetyl-^DPMI-δ-(6-10 olefinstaple) (D-K9D-Q, D-R12D-S)-NH2] (Ac-[dT][dA][dTrp(6-F)][dY][dA][ξαMeNle(6-ylidene)][dPhe(4-CF3)][dE][dQ][ξαMeNle(6-ylidene)][dL][dS]-NH2; staple (Z) 6-10) | 0.258 | 3 | 3.6 | > 50 | > 50 | > 50 | > 50 | > 50 | 9.1 | 80% | 30.4 |  |  |  |  |  |
| CC(=O)N[C@@H](C(=O)N[C@H](C)C(=O)N[C@H](Cc1c[nH]c2cc(F)ccc12)C(=O)N[C@H](Cc1ccc(O)cc1)C(=O)N[C@H](C)C(=O)NC1(C)CCC/C=C\CCCC(C)(C(=O)N[C@H](CC(C)C)C(=O)N[C@H](CO)C(=O)N[C@H](C)C(=O)N[C@H](C)C(=O)N[C@H](C)C(N)=O)NC(=O)[C@@H](CCC(N)=O)NC(=O)[C@@H](CCC(=O)O)NC(=O)[C@@H](Cc2ccc(C(F)(F)F)cc2)NC1=O)[C@H](C)O.N (stereo partly drawn) [Compound 3, Acetyl-^DPMI-δ-(6-10 olefinstaple) (D-K9D-Q, D-R12D-S, 3x(D-A)polypeptidetail)-NH2] (Ac-[dT][dA][dTrp(6-F)][dY][dA][ξαMeNle(6-ylidene)][dPhe(4-CF3)][dE][dQ][ξαMeNle(6-ylidene)][dL][dS][dA][dA][dA]-NH2; staple (Z) 6-10) | 0.0031 |  | 1.44 | 4.34 |  | > 50 | > 50 |  |  |  |  | 140 |  |  |  |  |
| CC(=O)N[C@@H](C(=O)N[C@H](C)C(=O)N[C@H](Cc1c[nH]c2cc(F)ccc12)C(=O)N[C@H](Cc1ccc(O)cc1)C(=O)N[C@H](C)C(=O)NC1(C)CCC/C=C\CCCC(C)(C(=O)N[C@H](CC(C)C)C(=O)N[C@H](CO)C(=O)N[C@H](C)C(=O)N[C@H](C)C(=O)N[C@H](C)C(=O)N[C@H](C)C(=O)N[C@H](C)C(=O)N[C@H](C)C(N)=O)NC(=O)[C@@H](CCC(N)=O)NC(=O)[C@@H](CCC(=O)O)NC(=O)[C@@H](Cc2ccc(C(F)(F)F)cc2)NC1=O)[C@H](C)O (stereo partly drawn) [Compound 4, Acetyl-^DPMI-δ-(6-10 olefinstaple) (D-K9D-Q, D-R12D-S, 6x(D-A)polypeptidetail)-NH2] (Ac-[dT][dA][dTrp(6-F)][dY][dA][ξαMeNle(6-ylidene)][dPhe(4-CF3)][dE][dQ][ξαMeNle(6-ylidene)][dL][dS][dA][dA][dA][dA][dA][dA]-NH2; staple (Z) 6-10) | 0.0032 |  | 0.61 | 0.28 |  | > 50 | > 50 |  | 1.48 | 84.5%^ | 31.1 |  | 100 | 0.3 | greater than 6 fold | 66 |
| CC(=O)N[C@@H](C(=O)N[C@H](C)C(=O)N[C@H](Cc1c[nH]c2cc(F)ccc12)C(=O)N[C@H](Cc1ccc(O)cc1)C(=O)N[C@H](C)C(=O)NC1(C)CCC/C=C\CCCC(C)(C(=O)N[C@H](CC(C)C)C(=O)N[C@H](CO)C(=O)N[C@H](C)C(=O)N[C@H](C)C(=O)N[C@H](C)C(=O)N[C@H](C)C(=O)N[C@H](C)C(=O)N[C@H](C)C(=O)N[C@H](C)C(=O)N[C@H](C)C(=O)N[C@H](C)C(N)=O)NC(=O)[C@@H](CCC(N)=O)NC(=O)[C@@H](CCC(=O)O)NC(=O)[C@@H](Cc2ccc(C(F)(F)F)cc2)NC1=O)[C@H](C)O (stereo partly drawn) [Compound 5, Acetyl- ^DPMI-δ-(6-10 olefinstaple) (D-K9D-Q, D-R12D-S, 9x(D-A)polypeptidetail)-NH2] (Ac-[dT][dA][dTrp(6-F)][dY][dA][ξαMeNle(6-ylidene)][dPhe(4-CF3)][dE][dQ][ξαMeNle(6-ylidene)][dL][dS][dA][dA][dA][dA][dA][dA][dA][dA][dA]-NH2; staple (Z) 6-10) | 0.0217 |  | ≥ 50 | > 50 |  | > 50 | > 50 |  |  |  |  | 16 (≈ 35.7 µg/mL) |  |  |  |  |
| CC(=O)N[C@@H](C(=O)N[C@H](C)C(=O)N[C@H](Cc1c[nH]c2cc(F)ccc12)C(=O)N[C@H](Cc1ccc(O)cc1)C(=O)N[C@H](C)C(=O)NC1(C)CCC/C=C\CCCC(C)(C(=O)N[C@H](CC(C)C)C(=O)N[C@H](CO)C(=O)N[C@H](C)C(=O)N[C@H](C)C(=O)N[C@H](C)C(=O)N[C@H](CCC(=O)O)C(=O)N[C@H](C)C(=O)N[C@H](C)C(N)=O)NC(=O)[C@@H](CCC(N)=O)NC(=O)[C@@H](CCC(=O)O)NC(=O)[C@@H](Cc2ccc(C(F)(F)F)cc2)NC1=O)[C@H](C)O (stereo partly drawn) [Compound 7, Acetyl-^DPMI-δ-(6-10 olefinstaple) (D-K9D-Q, D-R12D-S, 3x(D-Ala)-(D-Glu)-2x(D-Ala)polypeptidetail)-NH2] (Ac-[dT][dA][dTrp(6-F)][dY][dA][ξαMeNle(6-ylidene)][dPhe(4-CF3)][dE][dQ][ξαMeNle(6-ylidene)][dL][dS][dA][dA][dA][dE][dA][dA]-NH2; staple (Z) 6-10) | 0.00043 |  | 1.41 | 0.79 |  | > 50 | > 50 |  |  |  |  |  |  |  |  |  |
